Results published in US20120295805A1, “SOLID PHASE METHODS FOR THE[…] KINETIC QUANTIFICATION OF INTERACTIONS BETWEEN NUCLEIC ACIDS AND SMALL MOLECULES” (priority 2011, published 2012).

Experiments:
[1] = tested on: MB 5′ Fluorescein-CAATTCCTCT12GAATTG-BHQ1-C7-Amine 3′ with high affinity AATT site in the stem; test: TIRF-imaged melt curves of surface-immobilized molecular beacons (MB microarray); assay type: binding; conditions: 2 μM netropsin, 0.1 M pH 7 phosphate buffer, average of 9 spots
Procedure: The field of view is 4 mm diameter. (B) Melting curves of surface-immobilized MBs without and with 2 μM netropsin in 0.1 M phosphate buffer. […] (C) Melting curves under same conditions as in (B), but for MBs in solution. MBs were assumed closed once data with and without netropsin converged at lower temperatures.
BHQ1 is Black Hole Quencher 1, and the 3′ amine is used for surface immobilization via the stem. Repetition with the same MBs printed on commercial aldehyde microarray slides produced a 4-fold gain with transition observed at a similar temperature, FIG. 2A. […] (56-65) In such studies, opening of the MBs is driven by hybridization at the loop section, as opposed to thermal denaturation as in the data of FIG. 2. Efforts to improve the hybridization-induced gains included optimization of pH and salt composition (60-61, 63), insertion of spacers to distance MBs from the solid support, (63) changes in the chemical nature of the solid support (60-61), and isolation of MBs on the surface down to the single-molecule limit. (62) These approaches, however, have not solved the decreased gain, although effective workarounds have been found for hybridization applications (e.g. use of the solid support itself to provide better quenching (66-70)). Surface-immobilized SPs have also produced approximately 4-fold gains upon hybridization. (64) […]

DNA = conditions: reported for 0.016 M Na+ in ref. 38, corrected to 0.8 M Na+ using ref. 76; cited from earlier work
[2] = tested on: 10mer DNA sequence AGAATTGAGT possessing a high-affinity site (-AATT-); test: Electrochemically-determined surface melt curves (solid phase DNA denaturation, cyclic voltammetry of ferrocene-labeled strand); assay type: binding; conditions: 2×10^−6 M netropsin
Text: (B) Shape comparison of solution and surface melting transitions.
In this example, one strand was immobilized while the electroactively-labeled complementary strand was present in solution. Immobilization was realized through a single thiolate (—S—Au) linkage between DNA and the gold electrode support, with mercaptohexanol passivation used to block the remaining surface. (86) Hybridization occurred to the extent governed by thermodynamics under the imposed conditions of temperature and drug concentration. The extent of hybridization was tracked as a function of temperature with cyclic voltammetry, which allows determination of the coverage of double-stranded molecules from the total charge derived from their ferrocene labels. (87-88)
A number of noteworthy conclusions follow from FIG. 5A. The cooling and heating cycles superpose, confirming closeness to equilibrium at the tested scan rate of 0.4° C./min.
This is expected since netropsin prefers to bind to double-stranded DNA. (89) The free energy of binding (i.e. affinity) determined from the surface approach (FIG. 5A) is in reasonable agreement with solution methods. […]

Cn1cc(NC(=O)c2cc(NC(=O)CN=C(N)N)cn2C)cc1C(=O)NCCC(=N)N [netropsin]
Effect on melt transition (TM) of surface-immobilized MBs [1]: TM shifting to higher temperatures | ΔΔG°25C based on solution methods (DNA): -38.5 kJ/mol | Effect on denaturation transition (electrochemical melt curve) ([2]; 0.5 M pH 7 sodium phosphate buffer, scan rate 0.4° C./min): shifts denaturation to higher temperatures | ΔΔG°25C (increment of ΔG° of melting attributed to the drug; free energy of binding) ([2]; surface approach, 0.5 M pH 7 sodium phosphate buffer (0.8 M Na+), calculated at 25° C. from fitted ΔH° and ΔS°): -37.2 kJ/mol
